The nature of one series: physchem. As for the experimental part: 1) Description of Method for Determination of the log P Values (Formic Aid Method)
Eluents for determination in the acidic range (pH 3.4):
Eluent A: acetonitrile+1 ml of formic acid/liter. Eluent B: water+0.9 ml of formic acid/liter.
The lambda max values were determined in the maxima of the chromatographic signals using the UV spectra from 200 nm to 400 nm.

For another series, the system named is Myzus persicae. As to the kind of experiment: Myzus test (spray treatment). The series is classed as in vivo. Particulars: foliar, read-out: efficacy in % (aphids killed). As for the experimental part:
Solvent 78 parts by weight of acetone • • 1.5 parts by weight of dimethylformamide
Emulsifier: 0.5 part by weight of alkylaryl polyglycol ether
To prepare an appropriate active ingredient preparation, 1 part by weight of active ingredient is mixed with the stated amounts of solvent and emulsifier, and the concentrate is diluted with emulsifier-containing water to the desired concentration.

[1] abbreviates: application rate 500 g/ha, sprayed Chinese cabbage leaf discs, all stages of green peach aphid.
[2] abbreviates: reverse-phase C18 HPLC column, pH 3.4, logP (HCOOH), intermediates tables, HPLC reverse-phase C18, acidic range pH 3.4, 55° C.
Where [3] appears, read: reverse-phase C18 HPLC column, pH 3.4, logP (HCOOH), final compounds table, HPLC reverse-phase C18, acidic range pH 3.4, 55° C.
The mark [4] stands for this setting: reverse-phase C18 HPLC column, pH 3.4, log P (HCOOH), preparation examples, HPLC-MS.

Structures can show the parent of a compound that is named as a salt. Where two headings read alike, the source gives them in different places.

In general, chromatographic logP refers to a lipophilicity value derived from retention on a column. Low readings indicate lower lipophilicity, high ones higher lipophilicity. In “physchem” (pH 3.4, logP (HCOOH)), `CCN(CC)S(=O)(=O)NC(=O)c1cccc(-c2cnn(-c3cncc(F)c3)c2)n1` [Compound 39] showed a chromatographic logP of 2.98. The pest or weed control at 500 g/ha in the series with Myzus persicae (setting [1]) is 100%.

`CS(=O)(=O)NC(=O)c1cccc(-c2cnc(-c3cncc(F)c3)s2)n1` [Compound 9] showed a chromatographic logP in “physchem” (pH 3.4, logP (HCOOH)) of 2.05. In the series on Myzus persicae (setting [1]), the pest or weed control at 500 g/ha was determined as 100%. As for `O=C(NS(=O)(=O)C1CC1)c1cccc(Br)n1` [XII-7], the chromatographic logP in “physchem” (setting [2]) is 1.7.

Take `CCN(CC)S(=O)(=O)NC(=O)c1cccc(-c2cnn(-c3cccnc3)c2)n1` [Compound 40]: the chromatographic logP in the series “physchem” (pH 3.4, logP (HCOOH)) came to 2.49. Moreover, the pest or weed control at 500 g/ha with Myzus persicae (setting [1]) is 100%. For `CN(C)S(=O)(=O)NC(=O)c1cccc(-c2cnc(-c3cncc(F)c3)s2)n1` [Compound 53], in that order: 2.54 and 100%. In turn, `c1ncc(-c2nccs2)cn1` [XIII-3] had a chromatographic logP in “physchem” (setting [2]) of 0.69.

Turning to `O=C(NS(=O)(=O)Cc1ccccc1)c1cccc(-c2cnn(-c3cncc(F)c3)c2)n1` [Compound 33], the chromatographic logP in “physchem” (setting [3]) came to 2.89. For the same compound, the pest or weed control at 500 g/ha in the series on Myzus persicae (setting [1]) was 100%.

Consider `CS(=O)(=O)NC(=O)c1nc(Br)cs1` [XVI-1, 4-Bromo-N-(methylsulphonyl)-1,3-thiazole-2-carboxamide], for which the chromatographic logP in “physchem” (setting [4]) and in “physchem” (setting [2]) was 0.63 throughout. Regarding `CS(=O)(=O)NC(=O)c1cccc(-c2cnc(-c3cncnc3)s2)n1` [Compound 8], in “physchem” (setting [3]), the chromatographic logP was 1.48. In addition, the pest or weed control at 500 g/ha with Myzus persicae (setting [1]) amounted to 100%. The compound `Cc1nc(Cl)sc1S(=O)(=O)NC(=O)c1cccc(-c2cnc(-c3cncc(F)c3)s2)n1` [Compound 59] displayed a chromatographic logP in the series “physchem” (setting [3]) of 3.41. In addition, in the series with Myzus persicae (setting [1]), the pest or weed control at 500 g/ha was 100%.

As to `O=C(NS(=O)(=O)C(F)(F)F)c1cccc(-c2cnc(-c3cncc(F)c3)s2)n1` [Compound 2, 6-[2-(5-Fluoropyridin-3-yl)-1,3-thiazol-5-yl]-N-[(trifluoromethyl)sulphonyl]pyridine-2-carboxamide], the chromatographic logP was found to be 1.86 in “physchem” (pH 3.4, log P (HCOOH)) and 1.86 in “physchem” (pH 3.4, logP (HCOOH)). Moreover, the pest or weed control at 500 g/ha with Myzus persicae (setting [1]) is 100%. In “physchem” (setting [3]), `O=C(NS(=O)(=O)N1CCCCC1)c1cccc(-c2cnc(-c3cncc(F)c3)s2)n1` [Compound 54] registered a chromatographic logP of 3.29. Besides, in the series with Myzus persicae (setting [1]), the pest or weed control at 500 g/ha came out at 100%.

Compound `CC(=O)Nc1nnc(S(=O)(=O)NC(=O)c2cccc(-c3nnc(-c4cncc(F)c4)s3)n2)s1` [Compound 76] displayed a chromatographic logP in the series “physchem” (setting [3]) of 1.43. Moreover, in the series on Myzus persicae (setting [1]), the pest or weed control at 500 g/ha was determined as 100%. Consider `O=C(NS(=O)(=O)c1ccccc1)c1cccc(Br)n1` [XII-6], for which the chromatographic logP in the series “physchem” (setting [2]) worked out at 2.32. Same read-out and setting: the value for `CN(C)S(=O)(=O)NC(=O)c1cccc(Br)n1` [XII-2] was 1.82; that for `CCS(=O)(=O)NC(=O)c1cccc(Br)n1` [XII-5] was 1.54.

In “physchem” (setting [4]), `CS(=O)(=O)NC(=O)c1cccc(-c2cn[nH]c2)n1` [N-(Methylsulphonyl)-6-(1H-pyrazol-4-yl)pyridine-2-carboxamide] yielded a chromatographic logP of 0.91. In the case of `N#Cc1cccc(-c2cnc(-c3cncc(F)c3)s2)n1` [6-[2-(5-Fluoropyridin-3-yl)-1,3-thiazol-5-yl]pyridine-2-carbonitrile], the chromatographic logP in “physchem” (setting [4]) amounted to 2.51. For `CCOC(=O)C(=O)CC(=O)c1sc(-c2cncc(F)c2)nc1C` [Ethyl 4-[2-(5-fluoropyridin-3-yl)-4-methyl-1,3-thiazol-5-yl]-2,4-dioxobutanoate], the chromatographic logP in the series “physchem” (pH 3.4, log P (HCOOH)) came to 3.37. On to `Clc1cncc(-c2nccs2)c1` [XIII-2], for which the chromatographic logP in the series “physchem” (setting [2]) was found to be 1.94. As for `N=C(N)c1cccc(-c2cnc(-c3cccnc3)s2)n1` [Compound 48], the pest or weed control at 500 g/ha in the series on Myzus persicae (in Brassica rapa) was determined as 90%. In turn, `Nc1cccc(-c2cnn(-c3cccnc3)c2)n1` [6-[1-(Pyridin-3-yl)-1H-pyrazol-4-yl]pyridine-2-amine] came in with a chromatographic logP in the series “physchem” (setting [4]) of 0.3. For the compound `CC(=O)NS(=O)(=O)c1cccc(Br)n1` [XIV-2, N-[(6-Bromopyridin-2-yl)sulphonyl]acetamide], the chromatographic logP in the series “physchem” (setting [4]) and in the series “physchem” (setting [2]) was 0.95 in each case. `O=C(NS(=O)(=O)Cc1ccccc1)c1cccc(Br)n1` [XII-1] displayed a chromatographic logP in “physchem” (setting [2]) of 2.4. As to `CS(=O)(=O)NC(=O)c1cccc(Cl)n1` [XII-3], the chromatographic logP in the series “physchem” (setting [2]) was 1.15. On to `CCOC(=O)c1cc(-c2sc(-c3cncc(F)c3)nc2C)nn1C` [Ethyl 3-[2-(5-fluoropyridin-3-yl)-4-methyl-1,3-thiazol-5-yl]-1-methyl-1H-pyrazole-5-carboxylate], for which the chromatographic logP in the series “physchem” (pH 3.4, log P (HCOOH)) is 3.7. In the case of `Cc1nc(-c2cncc(F)c2)sc1-c1cc(C(=O)O)n(C)n1` [3-[2-(5-Fluoropyridin-3-yl)-4-methyl-1,3-thiazol-5-yl]-1-methyl-1H-pyrazole-5-carboxylic acid], the chromatographic logP in “physchem” (setting [4]) turned out to be 2.05.

In turn, `O=C(O)c1cccc(-c2cnc(-c3cncc(F)c3)s2)n1` [6-[2-(5-Fluoropyridin-3-yl)-1,3-thiazol-5-yl]pyridine-2-carboxylic acid] registered a chromatographic logP in the series “physchem” (setting [4]) of 1.72. Turning to `CS(=O)(=O)NC(=O)c1cccc(Br)n1` [XII-4, 6-Bromo-N-(methylsulphonyl)pyridine-2-carboxamide], the figures for the chromatographic logP in the series “physchem” (setting [4]) and in the series “physchem” (setting [2]) were 1.21 and 1.28, respectively. Consider `CS(=O)(=O)NC(=O)c1csc(Br)n1` [XV-1, 2-Bromo-N-(methylsulphonyl)-1,3-thiazole-4-carboxamide], for which the chromatographic logP turned out to be 0.83 in the series “physchem” (setting [4]) and 0.82 in “physchem” (setting [2]). In turn, `COC(=O)c1cccc(-c2cnc(-c3cncc(F)c3)s2)n1` [Methyl 6-[2-(5-fluoropyridin-3-yl)-1,3-thiazol-5-yl]pyridine-2-carboxylate] gave a chromatographic logP in the series “physchem” (pH 3.4, log P (HCOOH)) of 2.37. `NS(=O)(=O)c1cccc(-c2cnn(-c3cncnc3)c2)n1` [XVII-3] returned a chromatographic logP in “physchem” (pH 3.4, logP (HCOOH)) of 0.89. As to `NS(=O)(=O)c1cccc(-c2cnn(-c3cncc(F)c3)c2)n1` [XVII-2], the chromatographic logP in “physchem” (setting [2]) is 1.44. `Brc1cnn(-c2cccnc2)c1` [3-(4-Bromopyrazol-1-yl)pyridine] registered a chromatographic logP in “physchem” (setting [4]) of 1.56.

On to `N#Cc1cncc(-c2nccs2)c1` [XIII-4], for which, in “physchem” (setting [2]), the chromatographic logP turned out to be 1.34. In the series “physchem” (setting [4]), `N=C(N)c1cccc(-c2cnc(-c3cncc(F)c3)s2)n1` [Compound 79, 6-[2-(5-Fluoropyridin-3-yl)-1,3-thiazol-5-yl]pyridine-2-carboxamide amide hydrochloride (1:1)] showed a chromatographic logP of 0.71. Take `CC1(C)OB(c2cnn(-c3cccnc3)c2)OC1(C)C` [3-[4-(4,4,5,5-Tetramethyl-[1,3,2]dioxaborolan-2-yl)pyrazol-1-yl]pyridine]: the chromatographic logP in “physchem” (pH 3.4, log P (HCOOH)) turned out to be 2.19. On to `NS(=O)(=O)c1cccc(-c2cnn(-c3cccnc3)c2)n1` [XVII-1, 6-[1-(pyridin-3-yl)-1H-pyrazol-4-yl]pyridine-2-sulphonamide], for which the chromatographic logP in “physchem” (setting [4]) and in the series “physchem” (setting [2]) was 0.99 throughout. Turning to `Fc1cncc(-c2nccs2)c1` [XIII-1, 3-Fluoro-5-(1,3-thiazol-2-yl)pyridine], the chromatographic logP stood at 1.48 in “physchem” (setting [4]) and 1.51 in “physchem” (setting [2]).

Regarding `CS(=O)(=O)NC(=O)c1cccc(-c2cnn(-c3cncc(F)c3)c2)n1` [Compound 4, 6-[1-(5-Fluoropyridin-3-yl)-1H-pyrazol-4-yl]-N-(methylsulphonyl)pyridine-2-carboxamide], the chromatographic logP in “physchem” (setting [4]) was 1.98.
